Measurements as given in patent US8450527B2, “Amine derivative compounds for treating ophthalmic diseases and disorders” (Acucela Inc., priority 2007, dated 2013).
Structures can show the parent of a compound that is named as a salt.

How the values were obtained:
visual cycle isomerase = biological target: T1, visual cycle isomerase (Bos taurus, UniProt Q28175); experiment: In vitro isomerase inhibition assay, bovine RPE microsome membranes; format: biochemical; conditions: inhibition of 11-cis retinol formation; values given as ranges
T1 construct: Bovine Retinal Pigment Epithelium (RPE) microsome membranes were the source of a visual cycle isomerase; from tissue; host or cells: bovine retinal pigment epithelium microsome membranes; CRALBP made in E. coli
T1 sequence (Q28175 2-533 limits assumed): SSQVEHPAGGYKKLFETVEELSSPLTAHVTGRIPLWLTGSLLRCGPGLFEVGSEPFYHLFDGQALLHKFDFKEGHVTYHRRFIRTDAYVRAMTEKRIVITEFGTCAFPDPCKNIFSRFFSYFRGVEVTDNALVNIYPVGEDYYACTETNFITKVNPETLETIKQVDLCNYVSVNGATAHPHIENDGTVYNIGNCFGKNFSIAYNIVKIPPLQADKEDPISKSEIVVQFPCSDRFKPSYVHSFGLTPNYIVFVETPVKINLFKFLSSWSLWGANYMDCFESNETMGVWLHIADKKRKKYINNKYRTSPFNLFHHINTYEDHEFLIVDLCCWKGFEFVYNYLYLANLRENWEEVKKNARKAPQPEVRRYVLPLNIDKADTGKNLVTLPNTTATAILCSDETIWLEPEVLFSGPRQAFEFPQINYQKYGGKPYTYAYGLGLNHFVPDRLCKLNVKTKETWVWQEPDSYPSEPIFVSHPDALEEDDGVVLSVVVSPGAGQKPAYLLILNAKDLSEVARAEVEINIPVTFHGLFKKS
Method: The capability of amine derivative compounds to inhibit the activity of a visual cycle isomerase was determined
Isomerase inhibition reactions were performed essentially as described (Stecher et al., J. Biol. Chem. 274:8577-85 (1999); see also Golczak et al., Proc. Natl. Acad. Sci. USA 102:8162-67 (2005)). Bovine Retinal Pigment Epithelium (RPE) microsome membranes were the source of a visual cycle isomerase.
Bovine RPE microsome membrane extracts were prepared according to methods described (Golczak et al., Proc. Natl. Acad. Sci. USA 102:8162-67 (2005)) and stored at −80° C. Crude RPE microsome extracts were thawed in a 37° C. water bath, and then immediately placed on ice. 50 ml crude RPE microsomes were placed into a 50 ml Teflon-glass homogenizer (Fisher Scientific, catalog no. 0841416M) on ice, powered by a hand-held DeWalt drill, and homogenized ten times upand down on ice under maximum speed. This process was repeated until the crude RPE microsome solution was homogenized. The homogenate was then subjected to centrifugation (50.2 Ti rotor (Beckman, Fullerton, Calif.), 13,000 RPM; 15360 Rcf) for 15 minutes at 4° C. The supernatant was collected and subjected to centrifugation at 42,000 RPM (160,000 Rcf; 50.2 Ti rotor) for 1 hour at 4° C. The supernatant was removed, and the pellets were suspended in 12 ml (final volume) cold 10 mM MOPS buffer, pH 7.0. The resuspended RPE membranes in 5 ml aliquots were homogenized in a glass-to-glass homogenizer (Fisher Scientific, catalog no.K885500-0021) to high homogeneity. Protein concentration was quantified using the BCA protein assay according to the manufacturer's protocol (Pierce, Rockford, Ill.). The homogenized RPE preparations were stored at −80° C.
Recombinant human apo cellular retinaldehyde-binding protein (CRALBP) was cloned and expressed according to standard methods in the molecular biology art (see Crabb et al., Protein Science 7:746-57 (1998); Crabb et al., J. Biol. Chem. 263:18688-92 (1988)). Briefly, total RNA was prepared from confluent ARPE^19 cells (American Type Culture Collection, Manassas, Va.), cDNA was synthesized using an oligo(dT)12-18 primer, and then DNA encoding CRALBP was amplified by two sequential polymerase chain reactions (see Crabb et al., J. Biol. Chem. 263:18688-92 (1988); Intres, et al., J. Biol. Chem. 269:25411-18 (1994); GenBank Accession No. L34219.1). The PCR product was sub-cloned into pTrcHis2-TOPO TA vector according to the manufacturer's protocol (Invitrogen Inc., Carlsbad, Calif.; catalog no. K4400-01), and then the sequence was confirmed according to standard nucleotide sequencing techniques. Recombinant 6×His-tagged human CRALBP was expressed in One Shot TOP 10 chemically competent E. coli cells (Invitrogen), and the recombinant polypeptide was isolated from E. coli cell lysates by nickel affinity chromatography using nickel (Ni) Sepharose XK16-20 columns for HPLC (Amersham Bioscience, Pittsburgh, Pa.; catalog no.17-5268-O2). The purified 6×His-tagged human CRALBP was dialyzed against 10 mM bis-tris-Propane (BTP) and analyzed by SDS-PAGE. The molecular weight of the recombinant human CRALBP was approximately 39 kDal.
Amine derivative compounds and control compounds were reconstituted in ethanol to 0.1 M. Ten-fold serial dilutions (10^−2, 10^−3, 10^−4, 10^−5, 10^−6 M) in ethanol of each compound were prepared for analysis in the isomerase assay.
The isomerase assay was performed in 10 mM bis-tris-propane (BTP) buffer, pH 7.5, 0.5% BSA (diluted in BTP buffer), 1 mM sodium pyrophosphate, 20 μM all-trans retinol (in ethanol), and 6 μM apo-CRALBP. The test compounds (2 μl) (final 1/15 dilution of serial dilution stocks) were added to the above reaction mixture to which RPE microsomes were added. The same volume of ethanol was added to the control reaction (absence of test compound). Bovine RPE microsomes (9 μl) (see above) were then added, and the mixtures transferred to 37° C. to initiate the reaction (total volume=150 μl). […]

[1] = tested on: retinoid nuclear receptors (RAR and RxR); experiment: Retinoid nuclear receptor activity

SMILES	IC50 (visual cycle isomerase) [µM]	other results
Cc1cccc(C)c1CCc1cccc(CCCN)c1 (as salt: hydrochloride) [Example 1, 3-(3-(2,6-dimethylphenethyl)phenyl)propan-1-amine]	–	melting point: 106 to 108 °C
CCC(O)(CC)CCc1cccc(CCCN)c1 [Example 2, 1-(3-(3-aminopropyl)phenyl)-3-ethylpentan-3-ol]	≤ 1	–
NCCOc1cccc(CCCCCCO)c1 [Example 13, 6-(3-(2-aminoethoxy)phenyl)hexan-1-ol]	≤ 1	–
NCCOc1cccc(CCCC2CCCC2)c1 [Example 14, 2-(3-(3-cyclopentylpropyl)phenoxy)ethanamine]	≤ 1	–
NCCCc1cccc(CCC2CCCC2)c1 [Example 24, 3-(3-(2-cyclopentylethyl)phenyl)propan-1-amine]	≤ 1	–
NCCCc1cccc(CCC2CCCCC2)c1 [Example 25, 3-(3-(2-cyclohexylethyl)phenyl)propan-1-amine]	≤ 1	–
NCCCc1cccc(CCCCCCO)c1 [Example 30, 6-(3-(3-aminopropyl)phenyl)hexan-1-ol]	≤ 1	–
COCCCCCCc1cccc(CCCN)c1 [Example 33, 3-(3-(6-methoxyhexyl)phenyl)propan-1-amine]	≤ 1	–
CCCCC(CCCC)c1cccc(CCCN)c1 [Example 34]	1 to 10	–
NCCOc1cccc(CCc2ccccn2)c1 [Example 37, 2-(3-(2-(pyridin-2-yl)ethyl)phenoxy)ethanamine]	1 to 10	–
NCCOc1cccc(CCc2cccs2)c1 [Example 38, 2-(3-(2-(thiophen-2-yl)ethyl)phenoxy)ethanamine]	≤ 1	–
Cc1cccc(C)c1NC(=O)c1cccc(CCCN)c1 [Example 166, 3-(3-aminopropyl)-N-(2,6-dimethylphenyl)benzamide]	100 to 1000	–
C/C(=C\c1ccc(C(=O)O)cc1)c1ccc2c(c1)C(C)(C)CCC2(C)C [TTNPB, E-4-[2-(5,6,7,8-tetrahydro-5,5,8,8-tetramethyl-2-naphthylenyl)-1-propenyl]benzoic acid, reference compound]	–	effects on retinoid nuclear receptors (RAR and RxR) [1]: activated
CC1=C(/C=C/C(C)=C/C=C/C(C)=C/C(=O)O)C(C)(C)CCC1 [at-RA, All-trans-retinoic acid, reference compound]	–	effects on retinoid nuclear receptors (RAR and RxR) [1]: activated

The next lines start with results.

IC50 (visual cycle isomerase) [µM]	SMILES	other results
1 to 10	CC(C)(O)CCc1cccc(CCCN)c1 [Example 4, 4-(3-(3-Aminopropyl)phenyl)-2-methylbutan-2-ol]	–
1 to 10	COCCCc1cccc(CCCN)c1 [Example 5, 3-(3-(3-Methoxypropyl)phenyl)propan-1-amine]	–
10 to 100	NCCCc1cccc(CCCO)c1 [Example 6, 3-(3-(3-aminopropyl)phenyl)propan-1-ol]	–
1 to 10	CCCC(O)CCc1cccc(CCCN)c1 (stereo not drawn) [Example 8, 1-(3-(3-aminopropyl)phenyl)hexan-3-ol]	–
≤ 1	NCCC(O)c1cccc(CCCc2ccccc2)c1 (stereo not drawn) [Example 18, 3-amino-1-(3-(3-phenylpropyl)phenyl)propan-1-ol]	–
10 to 100	NCCCc1cccc(CCc2ccc3ccccc3c2)c1 [Example 21, 3-(3-(2-(naphthalen-2-yl)ethyl)phenyl)propan-1-amine]	–
1 to 10	NCCCc1cccc(CCc2ccccc2)c1 [Example 22, 3-(3-phenethylphenyl)propan-1-amine]	–
10 to 100	NCCCc1cccc(CCCCO)c1 [Example 23, 4-(3-(3-aminopropyl)phenyl)butan-1-ol]	–
≤ 1	NCCCc1cccc(CCCc2ccccc2)c1 [Example 26, 3-(3-(3-phenylpropyl)phenyl)propan-1-amine]	–
≤ 1	CCCCCCc1cccc(CCCN)c1 [Example 28, 3-(3-hexylphenyl)propan-1-amine]	–
1 to 10	Cc1ccccc1CCc1cccc(CCCN)c1 [Example 31, 3-(3-(2-methylphenethyl)phenyl)propan-1-amine]	–
10 to 100	NCCCc1cccc(CCc2cccc(-c3ccccc3)c2)c1 [Example 32, 3-(3-(2-(Biphenyl-3-yl)ethyl)phenyl)propan-1-amine]	–
1 to 10	NCCOc1cccc(CCc2cccnc2)c1 [Example 36, 2-(3-(2-(pyridin-3-yl)ethyl)phenoxy)ethanamine]	–
